{"source": "patent US20040053345A1", "about": "“Marker for probing the therapeutic efficacy of drugs” (priority 2002, published 2004)", "key": {"[1]": {"test_system": "breast cancer", "assay": "Menin expression in breast cancer tissues (immunohistological staining) versus recurrence under tamoxifen", "format": "in vivo, human", "protocol": "Thin slices (4 μm) were prepared from breast cancer tissues embedded with paraffin. After removing paraffin, the microwave treatment was carried out (5 min×3) in citrate buffer. After cooling at room temperature, the endogenous peroxidase activity was inhibited using an aqueous 0.3% hydrogen peroxide solution. Next, blocking was performed with 6 drops of 5% bovine albumin (Sigma) for one hour, and then the anti-menin antibody (Santa Cruz) (first antibody capable of immunohistological staining) was reacted overnight (8 hours). After washing, the second antibody and 6 drops of Envision+ (Dako) wherein HRP was conjugated with polymers were reacted for one hour.\nAfter 100 mg of a coloring agent, DAB (Dojindo), was thoroughly mixed in 150 ml of PBS, the slice was immersed in a solution containing 75 μl of 30% hydrogen peroxide (0.5 μl/ml) for 1 min, and immediately immersed into and washed with tap water. After the dehydration treatment, the slice was enclosed with a cover glass, and observed by a microscopy. The specimen where menin-positive cells with brown-colored nuclei were 50% or more of total cells was determined to be menin-positive."}, "[2]": {"test_system": "estrogen receptor (ER) transcription activity", "assay": "Reporter gene assay with ERE-Luc in menin-transfected cells in the presence of tamoxifen", "format": "cell-based, human", "conditions": "MCF-7 cells co-transfected with menin expression vector and ERE-Luc; 1 μM tamoxifen; 24 hours", "quoted_text": "The cells were cultured in DMEM (ICN) medium to which 10% fetal calf serum (ICN) was supplemented.\nFull-length menin cDNA was amplified by RT-PCR, and inserted into an expression vector, pcDNA3 (Invitrogen). The menin cDNA was identified by sequencing. The mutation (569delC) was introduced with a site-directed mutagenesis kit (Promega) to produce a variant menin.\nThe menin expression vector and the reporter gene (ERE-Luc) were co-transfected into MCF-7 cells according to the liposome method. Similarly, the menin expression vector, CMV-ERA and the reporter gene (ERE-Luc) were co-transfected. into COS-7 cells according to the liposome method. After culturing for 24 hours, the proteins were extracted from cells and assayed for their luciferase activity. The extracted proteins were measured for their protein concentration and β-galactosidase activity wherein β-galactosidase was co-transfected and the introduction efficiency was calibrated. Similar experiments were carried out with addition of 1 μM tamoxifen to the same system."}, "[3]": {"test_system": "breast cancer", "conditions": "ER-positive patients, tamoxifen administered for 5 years; cited from earlier work"}}, "note": "“Also recorded” adds a separate entry of the source."}
{"smiles": "CC/C(=C(\\c1ccccc1)c1ccc(OCCN(C)C)cc1)c1ccccc1", "note": "[tamoxifen]", "values": [{"measurement": "cancer recurrence", "setting": "[1]; 5 menin-positive cases, tamoxifen administered in 3 cases", "value": 4, "unit": "cases"}, {"measurement": "cancer recurrence", "setting": "[1]; menin-negative patient cases (3 of 10) administered tamoxifen", "value": "no recurrence"}, {"measurement": "inhibition of luciferase activity (ER transcription activity)", "setting": "[2]", "value": "not inhibited; also recorded: no suppressive effect"}, {"measurement": "recurrence rate relative to that in non-administered patients", "setting": "[3]", "value": 50, "unit": "%"}]}
